# Where two headings read alike, the source gives them in different places.
# Assays:
# β-glucosidase = experiment: Inhibition of β-glucosidase in conventional enzyme assay; type: biochemical; conditions: 1 mM concentration
# visna virus = experiment: microbe, parasite or virus in culture; type: cell-based; conditions: for inhibition at 1000 µM / inhibition at 100 µM: Visna-maedi virus
# α-glucosidase = experiment: Inhibition of α-glucosidase in conventional enzyme assay; type: biochemical; conditions: 1 mM concentration
# [1] = read-out: Visna % Plaque Redn (Conc)
# [2] = read-out: Visna % Plague Redn (Conc)
SMILES,inhibition at 1000 µM (visna virus; [1]),inhibition at 100 µM (visna virus; [2]),inhibition at 100 µM (visna virus; [1]),also measured
"CN(C)CCN[C@@H]1[C@H](O)[C@@H](CO)NC[C@H]1O [Compound 50, 3-[{2-(dimethylamino)ethyl}amino]-1,3,5-trideoxy-1,5-imino-D-altritol]",38%,–,–,inhibition of β-glucosidase (β-glucosidase): 22%; inhibition of α-glucosidase (α-glucosidase): 22%
"CCCCN1CC(NC(=O)CCC)C(O)C(O)C1CO [Compound 30, 1,5-(butylimino)-1,2,5-trideoxy-2-{(1-oxobutyl)amino}-D-glucitol]",–,20%,–,–
"CCC(CC)CN1CC(N=[N+]=[N-])C(O)C(O)C1CO [Compound 14, 2-azido-1,5-{(2-ethylbutyl)imino}-1,2,5-trideoxy-D-glucitol]",–,–,67%,–
"CCCCN1CC(N(C)C)C(O)C(O)C1CO [Compound 28, 1,5-(butylimino)-1,2,5-trideoxy-2-(dimethylamino)-D-glucitol]",–,41%,–,–
"CCC(CC)CN1CC(N)C(O)C(O)C1CO [Compound 22, 2-amino-1,5-{(2-ethylbutyl)imino}-1,2,5-trideoxy-D-glucitol]",–,–,–,"Visna % Plaque Redn (Conc), only a concentration bound printed (visna virus; Table 3, no % printed): > 1 mm"
"CCCCN1CC(N)C(N)C(O)C1CO [Compound 46, 2,3-diamino-1,5-(butylimino)-1,2,3,5-tetradeoxy-D-glucitol]",3%,–,–,–
"[N-]=[N+]=NC1CN(CCCC(F)(F)F)C(CO)C(O)C1O [Compound 15, 2-azido-1,5-{(4,4,4-trifluorobutyl)imino}-1,2,5-trideoxy-D-glucitol]",41%,–,–,–
"CCCCN1CC(N)C(O)C(O)C1CO [Compound 21, 2-amino-1,5-(butylimino)-1,2,5-trideoxy-D-glucitol]",–,66%,66%,–
"CCCCN1CC(NC)C(O)C(O)C1CO [Compound 29, 1,5-(butylimino)-1,2,5-trideoxy-2-(methylamino)-D-glucitol]",–,25%,–,–
"N[C@H]1CN[C@H](CO)[C@@H](O)[C@@H]1O [Compound 20, 2-amino-1,2,5-trideoxy-1,5-imino-D-glucitol]",–,–,91%,–
"CCCCN1CC(N=[N+]=[N-])C(O)C(O)C1CO [Compound 13, 2-azido-1,5-(butylimino)-1,2,5-trideoxy-D-glucitol]",–,78%,78%,–
"[N-]=[N+]=N[C@H]1CN[C@H](CO)[C@@H](O)[C@@H]1O [Compound 12, 2-azido-1,2,5-trideoxy-1,5-imino-D-glucitol]",–,–,76%,–
"CCCCN1CC(NC(=O)CCC)C(OC(=O)CCC)C(OC(=O)CCC)C1COC(=O)CCC [Compound 31, 1,5-(butylimino)-1,2,5-trideoxy-2-{(1-oxobutyl)amino}-D-glucitol, tributanoate]",–,29%,–,–
"NC1CN(CCCC(F)(F)F)C(CO)C(O)C1O [Compound 23, 2-amino-1,5-{(4,4,4-trifluorobutyl)imino}-1,2,5-trideoxy-D-glucitol]",9%,–,–,–
"N[C@H]1[C@H](O)[C@@H](CO)NC[C@@H]1O [Compound 37, 3-amino-1,3,5-trideoxy-1,5-imino-D-glucitol]",30%,–,–,–

# Reference: patent US5550243A, “B preparation of 2- and 3- azido derivates of 1,5-iminosugars” (priority 1995, dated 1996)
